{"source": "ChEMBL document CHEMBL1129178", "about": "“Thiol inhibitors of endothelin-converting enzyme” (Bioorg Med Chem Lett, 1996)", "data": [{"molecular_target": "T1, Endothelin-converting enzyme 1 (Rattus norvegicus) (UniProt P42893)", "T1 sequence (whole entry)": "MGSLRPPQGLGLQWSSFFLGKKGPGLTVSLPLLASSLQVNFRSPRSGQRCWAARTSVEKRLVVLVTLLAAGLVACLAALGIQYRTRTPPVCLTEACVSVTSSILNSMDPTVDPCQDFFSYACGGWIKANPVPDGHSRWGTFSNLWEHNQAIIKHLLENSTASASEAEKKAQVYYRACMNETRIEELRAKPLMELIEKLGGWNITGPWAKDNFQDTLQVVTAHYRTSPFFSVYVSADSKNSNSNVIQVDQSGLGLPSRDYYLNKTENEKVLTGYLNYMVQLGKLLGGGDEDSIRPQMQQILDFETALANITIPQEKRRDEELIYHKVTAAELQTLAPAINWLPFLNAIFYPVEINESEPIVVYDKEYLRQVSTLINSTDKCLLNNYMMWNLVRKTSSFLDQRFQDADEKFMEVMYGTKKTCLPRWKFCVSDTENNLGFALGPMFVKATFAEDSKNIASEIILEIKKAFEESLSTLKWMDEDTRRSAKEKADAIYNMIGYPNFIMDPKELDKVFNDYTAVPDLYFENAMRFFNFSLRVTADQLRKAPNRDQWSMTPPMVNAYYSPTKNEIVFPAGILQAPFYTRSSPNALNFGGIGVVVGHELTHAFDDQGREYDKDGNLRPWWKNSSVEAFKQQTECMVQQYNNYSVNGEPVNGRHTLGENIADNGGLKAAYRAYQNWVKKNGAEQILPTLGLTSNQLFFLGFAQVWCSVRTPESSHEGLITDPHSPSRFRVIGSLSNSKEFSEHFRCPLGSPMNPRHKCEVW", "test": "In vitro inhibition of cleavage of [3H]propionyl-big ET-1(19-35) by Endothelin-converting enzyme 1 from rat lungs at 10000 nM", "units": {"inhibition": "%"}, "values": [{"smiles": "O=C(O)[C@H](Cc1c[nH]c2ccccc12)NC(=O)[C@@H](S)Cc1ccccc1", "inhibition": 65}]}, {"molecular_target": "T2, Endothelin-converting enzyme 1 (Rattus norvegicus, UniProt P42893)", "T2 sequence (P42893 whole entry)": "T1 sequence (whole entry)", "test": "In vitro inhibition of Endothelin-converting enzyme 1 from rat lungs.", "units": {"IC50": "nM"}, "values": [{"smiles": "O=C(N[C@@H](Cc1c[nH]c2ccccc12)C(=O)O)C(CS)Cc1cc2c(cc1Cl)OCO2", "note": "(stereo partly specified)", "IC50": 400}, {"smiles": "O=C(N[C@@H](Cc1c[nH]c2ccccc12)C(=O)O)C(CS)Cc1ccc(-c2ccccc2)cc1", "note": "(stereo partly specified)", "IC50": 40}, {"smiles": "COC(=O)[C@H](Cc1c[nH]c2ccccc12)NC(=O)[C@H](S)Cc1ccccc1", "IC50": 2200}, {"smiles": "O=C(N[C@@H](Cc1c[nH]c2ccccc12)C(=O)O)C(CS)Cc1cccc(-c2ccccc2)c1", "note": "(stereo partly specified)", "IC50": 40}, {"smiles": "O=C(N[C@@H](Cc1ccc(-c2cccs2)cc1)C(=O)O)C(CS)Cc1cccc(Br)c1", "note": "(stereo partly specified)", "IC50": 80}, {"smiles": "O=C(N[C@@H](Cc1ccc(-c2cccs2)cc1)C(=O)O)[C@@H](CS)Cc1ccccc1", "IC50": 55}, {"smiles": "COC(=O)[C@H](Cc1c[nH]c2ccccc12)NC(=O)[C@@H](CS)Cc1ccccc1", "IC50": 1800}, {"smiles": "O=C(N[C@@H](Cc1c[nH]c2ccccc12)C(=O)O)[C@H](CS)Cc1ccccc1", "IC50": 500}, {"smiles": "O=C(N[C@@H](Cc1c[nH]c2ccccc12)C(=O)O)[C@H](S)Cc1ccccc1", "IC50": 400}, {"smiles": "O=C(N[C@@H](Cc1c[nH]c2ccccc12)C(=O)O)[C@@H](CS)Cc1ccccc1", "IC50": 180}, {"smiles": "O=C(N[C@@H](Cc1ccc(O)cc1)C(=O)O)[C@@H](CS)Cc1ccccc1", "IC50": 2800}, {"smiles": "COC(=O)[C@H](Cc1c[nH]c2ccccc12)NC(=O)[C@H](CS)Cc1ccccc1", "IC50": 3500}, {"smiles": "O=C(N[C@@H](Cc1c[nH]c2ccccc12)C(=O)O)C(CS)Cc1ccc(OCc2ccccc2)cc1", "note": "(stereo partly specified)", "IC50": 800}, {"smiles": "O=C(N[C@@H](Cc1ccccc1)C(=O)O)[C@@H](CS)Cc1ccccc1", "IC50": 1200}, {"smiles": "COc1ccc(-c2ccc(C[C@H](NC(=O)[C@@H](CS)Cc3ccccc3)C(=O)O)cc2)cc1", "IC50": 800}, {"smiles": "O=C(N[C@@H](Cc1c[nH]c2ccccc12)C(=O)O)C(CS)Cc1ccc(Br)cc1", "note": "(stereo partly specified)", "IC50": 25}, {"smiles": "O=C(N[C@@H](Cc1ccc(-c2ccccc2)cc1)C(=O)O)[C@@H](CS)Cc1ccccc1", "IC50": 150}, {"smiles": "O=C(N[C@@H](Cc1ccc(OCc2ccccc2)cc1)C(=O)O)[C@@H](CS)Cc1ccccc1", "IC50": 700}, {"smiles": "O=C(N[C@@H](Cc1c[nH]c2ccccc12)C(=O)O)C(CS)Cc1ccccc1", "note": "(stereo partly specified)", "IC50": 340}, {"smiles": "O=C(N[C@@H](Cc1ccc(-c2ccc3ccccc3c2)cc1)C(=O)O)[C@@H](CS)Cc1ccccc1", "IC50": 300}]}]}
